Among the data in the supplement of paper PMC10307832 are relative viability values, retold here.

What all share (experiment): relative viability (nuclei count vs DMSO), 5 days (fraction); higher = more cells survive
Compound in test [1]: COc1nc(N)nc2c1ncn2[C@@H]1O[C@H](CO)[C@@H](O)[C@@H]1O [Nelarabine] + CCNC(=O)c1noc(-c2cc(C(C)C)c(O)cc2O)c1-c1ccc(CN2CCOCC2)cc1 [Luminespib] (partner 0.01 µM)
In a few lines: (§1)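 Lung cancer cell lines in 1536-well plates were dosed by pin tool the day after seeding, either with one drug alone or with a fixed anchor-drug dose plus five library-drug doses (not always all listed) in √10 steps. After 5 days, cells were fixed and their nuclei stained in one step (final 0.05% Triton X-100, 1% formaldehyde, 1 ug/ml Hoechst), then counted on 4× images. Relative viability is the nuclei count in treated wells divided by that in vehicle wells. Values are medians of duplicate plates.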

Compound in test [2]: COc1nc(N)nc2c1ncn2[C@@H]1O[C@H](CO)[C@@H](O)[C@@H]1O [Nelarabine] + COc1cccc2cc(-c3nc([C@H]4CC[C@H](C(=O)O)CC4)n4ncnc(N)c34)[nH]c12 [OSI-027] (partner 0.5 µM)
Summed up:
as §1

Compound in test [3]: COc1nc(N)nc2c1ncn2[C@@H]1O[C@H](CO)[C@@H](O)[C@@H]1O [Nelarabine] + Nc1nc2[nH]cc(CCc3ccc(C(=O)N[C@@H](CCC(=O)O)C(=O)O)cc3)c2c(=O)[nH]1 [Pemetrexed] (partner 0.2 µM)
Summed up:
as §1

Compound in test [4]: C=CCn1c(=O)c2cnc(Nc3ccc(N4CCN(C)CC4)cc3)nc2n1-c1cccc(C(C)(C)O)n1 [Adavosertib] + CS(=O)(=O)N1CCN(Cc2cc3nc(-c4cccc5[nH]ncc45)nc(N4CCOCC4)c3s2)CC1 [Pictilisib] (partner 1 µM)
Summed up: as §1

Take EMC-BAC-2: the relative viability in test [1] (first compound 0.01 µM) was found to be 1.41; in test [1] (first compound 0.03162 µM) it was 1.16; in test [1] (first compound 0.1 µM), 1.11; in test [1] (first compound 0.3162 µM), 1.22; in test [1] (first compound 1 µM), 1.28; in test [2] (first compound 0.01 µM), 0.393. The relative viability in test [2] (first compound 0.03162 µM) came out at 0.41; in test [2] (first compound 0.1 µM), 0.398; in test [2] (first compound 0.3162 µM), 0.36; in test [2] (first compound 1 µM), 0.377; in test [3] (first compound 0.01 µM), 0.44; in test [3] (first compound 0.03162 µM), 0.456. Also, the relative viability was 0.502 in test [3] (first compound 0.1 µM); 0.52 in test [3] (first compound 0.3162 µM); 0.508 in test [3] (first compound 1 µM); 0.544 in test [4] (first compound 0.01 µM); 0.56 in test [4] (first compound 0.03162 µM); 0.583 in test [4] (first compound 0.1 µM). Also, the relative viability in test [4] (first compound 0.3162 µM) was 0.544.
